Results on 18 compounds are retold here after US12590062B2, “PD-1/PD-L1 inhibitors” (Gilead Sciences, Inc., priority 2017, dated 2026).

The target of one assay is PD-1/PD-L1 (Homo sapiens, UniProt Q9NZQ7). The experiment in a line: PD-1/PD-L1 biochemical protein-protein interaction assay (ALPHA). The class given is binding. The conditions noted are these: 0.3 nM His tagged PD-L1, 2.5 nM biotinylated Fc-PD-1, 60 minutes at 25° C., read-out: IC50 PD-L1-PD-1 Alpha IC50-mono PD-L1-fcP-D1. On the procedure:
Biological Activity PD-1/PD-L1 & CTLA/CD80 Biochemical Protein-Protein Interaction Assay
Compounds were tested in biochemical protein-protein interaction assays to determine if they can specifically block the interaction between the extracellular domains of PD-1/PD-L1 or CTLA/CD80. Binding of the protein pairs is measured using a bead based Amplified Luminescent Proximity Homogeneous Assay (ALPHA) platform. Binding of each protein pair results in proximity of the donor and acceptor beads which leads to an increase in ALPHA signal. Disruption of the protein-protein interaction with a test compound results in a decrease in ALPHA signal. Assays are performed in 25 mM Hepes (pH 7.4), 150 mM NaCl, 3.4 mM EDTA, 0.005% Tween 20, and 0.01% BSA. Final protein concentration in the assays were 0.3 nM (His tagged PD-L1), 2.5 nM (biotinylated Fc-PD-1), 1 nM (His tagged CTLA4) and 1 nM (biotinylated CD80). After an assay reaction time of 60 minutes at 25° C., binding was measured with addition of 20 μg/mL ALPHA assay acceptor beads (anti-His coated) and […] ALPHA assay donor beads (streptavidin coated). IC50 values were calculated from the fit of the dose-response curves to a four-parameter equation. Representative data are shown below in Table 1.

The target in the next assay is T1, PD-1/PD-L1 interaction (Homo sapiens, UniProt Q9NZQ7).
T1 construct: expressed in transfected cells; host or cells: CHO cells (aAPC-PD-L1) co-cultured with Jurkat cells overexpressing PD-1 and an NFAT-luciferase reporter
Description: PD-1/PD-L1 NFAT reporter co-culture assay. The class given is cell-based. As to conditions: Jurkat PD-1 NFAT-luciferase cells co-cultured with aAPC-PD-L1 CHO cells, 6 hrs at 37° C.; read-out: EC50 NFAT Luciferase. The gist of the method:
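Compounds are scored by restoration of NFAT-luciferase signal in PD-1-expressing Jurkat cells cultured 6 h at 37 °C on CHO cells presenting anti-CD3 and PD-L1; EC50 values derive from four-parameter curve fitting.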

Where only a bound is given, the exact number is not on record here.

T1 sequence (Q9NZQ7 19-290): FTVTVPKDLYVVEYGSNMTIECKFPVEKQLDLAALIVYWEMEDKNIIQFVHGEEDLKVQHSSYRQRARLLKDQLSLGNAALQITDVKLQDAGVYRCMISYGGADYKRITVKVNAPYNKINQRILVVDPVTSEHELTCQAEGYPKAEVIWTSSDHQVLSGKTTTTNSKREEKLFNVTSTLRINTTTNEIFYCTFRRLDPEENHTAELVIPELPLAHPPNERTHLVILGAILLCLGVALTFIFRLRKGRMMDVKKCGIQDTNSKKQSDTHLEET
PD-1/PD-L1, sequence (Q9NZQ7 19-238 limits assumed): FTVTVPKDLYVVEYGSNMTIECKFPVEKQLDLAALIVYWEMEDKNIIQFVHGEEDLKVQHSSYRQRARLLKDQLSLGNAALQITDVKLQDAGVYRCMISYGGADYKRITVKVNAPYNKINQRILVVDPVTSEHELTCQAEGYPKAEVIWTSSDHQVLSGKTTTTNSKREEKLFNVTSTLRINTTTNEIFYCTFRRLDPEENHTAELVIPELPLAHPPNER

Usually IC50 stands for the concentration that gives 50% inhibition. For orientation: EC50 means the concentration giving half of the maximal effect. In the case of `Cc1c(COc2cc(OCc3cncc(C#N)c3)c(CNCc3ncc[nH]3)cc2Br)cccc1-c1cccc(COc2cc(OCc3cncc(C#N)c3)c(CNCc3ncc[nH]3)cc2Br)c1C` [Example 261, 5,5′-((((((2,2′-dimethyl-[1,1′-biphenyl]-3,3′-diyl)bis(methylene))bis(oxy))bis(6-((((1H-imidazol-2-yl)methyl)amino)methyl)-4-bromo-3,1-phenylene))bis(oxy))bis(methylene))dinicotinonitrile], at PD-1/PD-L1, the IC50 amounted to 120 nM. For the same compound, the EC50 on PD-1/PD-L1 interaction was found to be 3170 nM.

In the case of `Cc1c(COc2nc(OCc3cnnn3Cc3ccccc3)c(CNC[C@@H](O)CC(=O)O)cc2Br)cccc1-c1cccc(COc2nc(OCc3cnnn3Cc3ccccc3)c(CNC[C@@H](O)CC(=O)O)cc2Br)c1C` [Example 139, (3S,3′S)-4,4′-((((((2,2′-dimethyl-[1,1′-biphenyl]-3,3′-diyl)bis(methylene))bis(oxy))bis(2-((1-benzyl-1H-1,2,3-triazol-5-yl)methoxy)-5-bromopyridine-6,3-diyl))bis(methylene))bis(azanediyl))bis(3-hydroxybutanoic acid)], at PD-1/PD-L1, the IC50 worked out at 5.1 nM. At PD-1/PD-L1 interaction, the EC50 is 23900 nM.

For the compound `COc1nc(OCc2cccc(-c3cccc(COc4ccc(CNCCNC(C)=O)c(OC)n4)c3C)c2C)ccc1CNCCNC(C)=O` [Example 18, N,N′-(((((((2,2′-dimethyl-[1,1′-biphenyl]-3,3′-diyl)bis(methylene))bis(oxy))bis(2-methoxypyridine-6,3-diyl))bis(methylene))bis(azanediyl))bis(ethane-2,1-diyl))diacetamide], at PD-1/PD-L1, the IC50 is 16.2 nM. Further, at PD-1/PD-L1 interaction, the EC50 is not below 50000 nM.

For the compound `Cc1c(COc2cc(OCc3cncc(C#N)c3)c(CNCCO)cc2Br)cccc1-c1cccc(COc2cc(OCc3cncc(C#N)c3)c(CNCCO)cc2Br)c1C` [Example 254, 5,5′-((((((2,2′-dimethyl-[1,1′-biphenyl]-3,3′-diyl)bis(methylene))bis(oxy))bis(4-bromo-6-(((2-hydroxyethyl)amino)methyl)-3,1-phenylene))bis(oxy))bis(methylene))dinicotinonitrile], the concentration for half-maximal inhibition (IC50) at PD-1/PD-L1 turned out to be 20.8 nM. For the same compound, the EC50 on PD-1/PD-L1 interaction was 689 nM.

Regarding `Cc1c(COc2ccc(CNCCO)cc2C(F)(F)F)cccc1-c1cccc(COc2ccc(CNCCO)cc2C(F)(F)F)c1C` [Example 223, 2,2′-((((((2,2′-dimethyl-[1,1′-biphenyl]-3,3′-diyl)bis(methylene))bis(oxy))bis(3-(trifluoromethyl)-4,1-phenylene))bis(methylene))bis(azanediyl))bis(ethan-1-ol)], the IC50 on PD-1/PD-L1 came to 34.6 nM. Moreover, the EC50 at PD-1/PD-L1 interaction is not below 50000 nM.

As to `Cc1c(COc2cc(OCc3cncc(C#N)c3)c(CN[C@@](C)(CO)C(=O)O)cc2Cl)cccc1-c1cccc(-c2ccc(S(N)(=O)=O)cc2)c1C` [Example 564], at PD-1/PD-L1, the IC50 came out at 0.293 nM. Besides, the EC50 on PD-1/PD-L1 interaction was determined as 80 nM.

Turning to `COc1nc(/C=C/c2cccc(-c3cccc(/C=C/c4ccc(CNC[C@@H](O)CC(=O)O)c(OC)n4)c3C)c2C)ccc1CNC[C@@H](O)CC(=O)O` [Example 238, (3S,3′S)-4,4′-(((((1E,1′E)-(2,2′-dimethyl-[1,1′-biphenyl]-3,3′-diyl)bis(ethene-2,1-diyl))bis(2-methoxypyridine-6,3-diyl))bis(methylene))bis(azanediyl))bis(3-hydroxybutanoic acid)], the IC50 on PD-1/PD-L1 was found to be 0.9 nM. Moreover, at PD-1/PD-L1 interaction, the EC50 was determined as 2120 nM.

For `COc1nc(OCc2cccc(-c3cccc(COc4ccc(CNC[C@@H](O)CC(=O)O)c(OC)n4)c3Cl)c2Cl)ccc1CNC[C@@H](O)CC(=O)O` [Example 187, (3S,3′S)-4,4′-((((((2,2′-Dichloro-[1,1′-biphenyl]-3,3′-diyl)bis(methylene))bis(oxy))bis(2-methoxypyridine-6,3-diyl))bis(methylene))bis(azanediyl))bis(3-hydroxybutanoic acid)], on PD-1/PD-L1, the IC50 was 0.6 nM. For the same compound, the EC50 at PD-1/PD-L1 interaction came to 3200 nM.

As for `COc1nc(OCc2cccc(-c3cccc(COc4nc(OC)c(CN5CC[C@H]5C(=O)O)cc4Br)c3C)c2C)c(Br)cc1CN1CC[C@H]1C(=O)O` [Example 59, (2S,2′S)-1,1′-(((((2,2′-dimethyl-[1,1′-biphenyl]-3,3′-diyl)bis(methylene))bis(oxy))bis(5-bromo-2-methoxypyridine-6,3-diyl))bis(methylene))bis(azetidine-2-carboxylic acid)], the IC50 on PD-1/PD-L1 was found to be 0.1 nM. For the same compound, the EC50 at PD-1/PD-L1 interaction came to 1250 nM.

On to `Cc1c(COc2cc(OCc3cncc(C#N)c3)c(CNC[C@@H](O)CC(=O)O)cc2Cl)cccc1-c1cccc(-c2cn(CCCNC[C@@H](O)CC(=O)O)nn2)c1C` [Example 387, (S)-4-((3-(4-(3′-((4-((((S)-3-carboxy-2-hydroxypropyl)amino)methyl)-2-chloro-5-((5-cyanopyridin-3-yl)methoxy)phenoxy)methyl)-2,2′-dimethyl-[1,1′-biphenyl]-3-yl)-1H-1,2,3-triazol-1-yl)propyl)amino)-3-hydroxybutanoic acid], for which, at PD-1/PD-L1, the IC50 worked out at 0.051 nM. At PD-1/PD-L1 interaction, the EC50 amounted to 362 nM.

Consider `Cc1c(COc2ccc(CNC[C@@H](O)CC(=O)O)cc2C(F)(F)F)cccc1-c1cccc(COc2ccc(CNC[C@@H](O)CC(=O)O)cc2C(F)(F)F)c1C` [Example 224, (3S,3′S)-4,4′-((((((2,2′-dimethyl-[1,1′-biphenyl]-3,3′-diyl)bis(methylene))bis(oxy))bis(3-(trifluoromethyl)-4,1-phenylene))bis(methylene))bis(azanediyl))bis(3-hydroxybutanoic acid)], for which the IC50 on PD-1/PD-L1 came to 1.8 nM. The EC50 at PD-1/PD-L1 interaction was 24900 nM.

Consider `Cc1c(COc2cc(OCc3cncc(C#N)c3)c(CN3CC[C@@H]3CO)cc2Br)cccc1-c1cccc(COc2cc(OCc3cncc(C#N)c3)c(CN3CC[C@@H]3CO)cc2Br)c1C` [Example 258, 5,5′-((((((2,2′-dimethyl-[1,1′-biphenyl]-3,3′-diyl)bis(methylene))bis(oxy))bis(4-bromo-6-(((R)-2-(hydroxymethyl)azetidin-1-yl)methyl)-3,1-phenylene))bis(oxy))bis(methylene))dinicotinonitrile], for which, on PD-1/PD-L1, the IC50 is 6.3 nM. Moreover, the EC50 at PD-1/PD-L1 interaction is 419 nM.

As to `CNC(=O)COc1nc(O[C@H]2CCc3c(-c4cccc(-c5ccc(OCCNC[C@@H](O)CC(=O)O)cc5)c4C)cccc32)c(Br)cc1CNC[C@@H](O)CC(=O)O` [Example 754], the IC50 on PD-1/PD-L1 turned out to be 0.091 nM. Further, at PD-1/PD-L1 interaction, the EC50 is 434 nM.

Regarding `Cc1c(COc2cc(OCc3cncc(C#N)c3)c(CN(C)C)cc2Cl)cccc1-c1cccc(-c2ccc(CN(C)C)s2)c1C` [Example 366, 5-((4-chloro-2-((dimethylamino)methyl)-5-((3′-(5-((dimethylamino)methyl)thiophen-2-yl)-2,2′-dimethyl-[1,1′-biphenyl]-3-yl)methoxy)phenoxy)methyl)nicotinonitrile], on PD-1/PD-L1, the IC50 amounted to 2.33 nM. The EC50 at PD-1/PD-L1 interaction was 2840 nM.

Turning to `Cc1nc(OCc2cccc(-c3cccc(COc4ccc(CNC[C@@H](O)CC(=O)O)c(C)n4)c3C)c2C)ccc1CNC[C@@H](O)CC(=O)O` [Example 156, (3S,3′S)-4,4′-((((((2,2′-dimethyl-[1,1′-biphenyl]-3,3′-diyl)bis(methylene))bis(oxy))bis(2-methylpyridine-6,3-diyl))bis(methylene))bis(azanediyl))bis(3-hydroxybutanoic acid)], the IC50 at PD-1/PD-L1 is 2.3 nM. Besides, the EC50 on PD-1/PD-L1 interaction is 34200 nM.

Take `C=Cc1cc(CNCCO)c(OCc2cncc(C#N)c2)cc1OCc1cccc(-c2cccc(COc3cc(OCc4cncc(C#N)c4)c(CNCCO)cc3C=C)c2C)c1C` [Example 36, 5,5′-((((((2,2′-dimethyl-[1,1′-biphenyl]-3,3′-diyl)bis(methylene))bis(oxy))bis(6-(((2-hydroxyethyl)amino)methyl)-4-vinyl-3,1-phenylene))bis(oxy))bis(methylene))dinicotinonitrile]: the IC50 at PD-1/PD-L1 came to 21.6 nM. Moreover, the 50% effective concentration (EC50) at PD-1/PD-L1 interaction stood at 1070 nM.

On to `N#Cc1cncc(COc2cc(OCc3cccc(-c4cccc(COc5cc(OCc6cncc(C#N)c6)c(CNCCO)cc5Cl)c4)c3)c(Cl)cc2CNCCO)c1` [Example 25, 5,5′-((((([1,1′-biphenyl]-3,3′-diylbis(methylene))bis(oxy))bis(4-chloro-6-(((2-hydroxyethyl)amino)methyl)-3,1-phenylene))bis(oxy))bis(methylene))dinicotinonitrile], for which, at PD-1/PD-L1, the half-maximal inhibitory concentration (IC50) came out at 20.9 nM. For the same compound, the EC50 at PD-1/PD-L1 interaction stood at 3760 nM.

As to `Cc1c(COc2cc(OCc3cncc(C#N)c3)c(CNCC[C@H](O)C(=O)O)cc2Cl)cccc1-c1cccc(COc2cc(OCc3cncc(C#N)c3)c(CNCC[C@H](O)C(=O)O)cc2Cl)c1C` [Example 215, (2S,2′S)-4,4′-((((((2,2′-dimethyl-[1,1′-biphenyl]-3,3′-diyl)bis(methylene))bis(oxy))bis(5-chloro-2-((5-cyanopyridin-3-yl)methoxy)-4,1-phenylene))bis(methylene))bis(azanediyl))bis(2-hydroxybutanoic acid)], the IC50 at PD-1/PD-L1 came to 1.26 nM. The EC50 at PD-1/PD-L1 interaction came out at 413 nM.
